# Measurements reported in ChEMBL document CHEMBL1134432 (Bioorg Med Chem Lett, 2001).
# Legend:
# [1] = species on record: Rattus norvegicus; test: Effective concentration required to determined hallucinogen-like activity in LSD-trained rats; assay type: functional
# [2] = target: T1, 5-hydroxytryptamine receptor 1A (Homo sapiens, UniProt P08908); test: Binding affinity towards human 5-hydroxytryptamine 1A receptor was determined using [3H]8-OH-DPAT-as radioligand
# T1 sequence (P08908 whole entry): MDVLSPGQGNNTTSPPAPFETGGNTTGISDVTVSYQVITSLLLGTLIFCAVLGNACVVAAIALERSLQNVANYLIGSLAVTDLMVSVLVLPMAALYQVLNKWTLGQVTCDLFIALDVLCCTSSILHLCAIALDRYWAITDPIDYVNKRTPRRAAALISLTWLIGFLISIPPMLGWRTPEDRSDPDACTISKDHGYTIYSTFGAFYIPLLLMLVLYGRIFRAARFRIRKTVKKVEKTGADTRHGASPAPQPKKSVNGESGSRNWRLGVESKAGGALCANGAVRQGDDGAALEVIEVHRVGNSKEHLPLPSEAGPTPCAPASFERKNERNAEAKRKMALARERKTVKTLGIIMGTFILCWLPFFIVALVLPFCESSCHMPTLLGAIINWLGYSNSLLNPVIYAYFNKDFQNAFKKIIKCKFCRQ
# [3] = target: 5-hydroxytryptamine receptor 2A (Rattus norvegicus, UniProt P14842); test: Binding affinity towards rat 5-hydroxytryptamine 2A receptor was determined using [125I]- DOI as radioligand
# 5-hydroxytryptamine receptor 2A, sequence (P14842 whole entry): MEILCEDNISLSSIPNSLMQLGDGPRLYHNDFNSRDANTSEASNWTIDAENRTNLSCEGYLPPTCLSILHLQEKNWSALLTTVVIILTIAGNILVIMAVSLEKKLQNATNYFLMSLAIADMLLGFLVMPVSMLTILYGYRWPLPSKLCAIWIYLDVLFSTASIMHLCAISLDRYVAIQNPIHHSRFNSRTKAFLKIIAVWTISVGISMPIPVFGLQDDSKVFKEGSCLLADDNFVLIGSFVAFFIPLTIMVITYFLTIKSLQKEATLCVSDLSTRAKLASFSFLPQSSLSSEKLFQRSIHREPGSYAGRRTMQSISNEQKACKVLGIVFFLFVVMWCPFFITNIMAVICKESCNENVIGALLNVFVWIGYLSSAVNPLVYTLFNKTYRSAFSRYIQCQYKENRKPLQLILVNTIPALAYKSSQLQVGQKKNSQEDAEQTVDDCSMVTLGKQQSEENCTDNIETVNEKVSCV
# [4] = target: T2, 5-hydroxytryptamine receptor 2C (Rattus norvegicus, UniProt P08909); test: Binding affinity towards rat 5-hydroxytryptamine 2C receptor was determined using [125I]- DOI as radioligand
# T2 sequence (P08909 whole entry): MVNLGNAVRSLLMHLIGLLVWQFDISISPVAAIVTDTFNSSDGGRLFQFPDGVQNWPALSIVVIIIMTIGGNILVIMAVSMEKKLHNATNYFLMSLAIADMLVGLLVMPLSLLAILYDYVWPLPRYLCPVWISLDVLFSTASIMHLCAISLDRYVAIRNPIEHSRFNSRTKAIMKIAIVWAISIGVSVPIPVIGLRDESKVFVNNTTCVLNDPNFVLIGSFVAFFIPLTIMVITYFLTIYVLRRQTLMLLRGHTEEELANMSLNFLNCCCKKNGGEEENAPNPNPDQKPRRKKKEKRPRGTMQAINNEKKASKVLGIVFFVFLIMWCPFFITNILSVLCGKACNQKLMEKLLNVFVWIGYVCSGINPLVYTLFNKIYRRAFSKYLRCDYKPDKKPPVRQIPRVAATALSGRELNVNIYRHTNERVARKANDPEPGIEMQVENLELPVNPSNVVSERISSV
# [5] = tested on: Rattus norvegicus; test: Percentage of animals failed to emit 50 responses within 5 min at 0.063 umol/kg in LY-293284-trained rats; assay type: functional
# [6] = tested on: Rattus norvegicus; test: Percentage of animals failed to emit 50 responses within 5 min at 0.125 umol/kg in DOI-trained rats; assay type: functional
# [7] = tested on: Rattus norvegicus; test: Percentage of animals failed to emit 50 responses within 5 min at 0.125 umol/kg in LSD-trained rats; assay type: functional
# [8] = tested on: Rattus norvegicus; test: Percentage of animals failed to emit 50 responses within 5 min at 0.125 umol/kg in LY-293284-trained rats; assay type: functional
# [9] = tested on: Rattus norvegicus; test: Percentage of animals failed to emit 50 responses within 5 min at 0.25 umol/kg in DOI-trained rats; assay type: functional
# [10] = tested on: Rattus norvegicus; test: Percentage of animals failed to emit 50 responses within 5 min at 0.25 umol/kg in LSD-trained rats; assay type: functional
# [11] = tested on: Rattus norvegicus; test: Percentage of animals failed to emit 50 responses within 5 min at 0.25 umol/kg in LY-293284-trained rats; assay type: functional
# [12] = tested on: Rattus norvegicus; test: Percentage of animals failed to emit 50 responses within 5 min at 0.5 umol/kg in DOI-trained rats; assay type: functional
# [13] = tested on: Rattus norvegicus; test: Percentage of animals failed to emit 50 responses within 5 min at 0.5 umol/kg in LSD-trained rats; assay type: functional
# [14] = tested on: Rattus norvegicus; test: Percentage of animals failed to emit 50 responses within 5 min at 0.5 umol/kg in LY-293284-trained rats; assay type: functional
# [15] = tested on: Rattus norvegicus; test: Percentage of animals failed to emit 50 responses within 5 min at 1 umol/kg in LSD-trained rats; assay type: functional
# [16] = tested on: Rattus norvegicus; test: Percentage of animals failed to emit 50 responses within 5 min at 1 umol/kg in LY-293284-trained rats; assay type: functional
# [17] = tested on: Rattus norvegicus; test: Percentage of animals tested that selected the training compound appropriate level at 0.063 umol/kg in LY-293284-trained rats; assay type: functional
# [18] = tested on: Rattus norvegicus; test: Percentage of animals tested that selected the training compound appropriate level at 0.125 umol/kg in DOI-trained rats; assay type: functional
# [19] = tested on: Rattus norvegicus; test: Percentage of animals tested that selected the training compound appropriate level at 0.125 umol/kg in LSD-trained rats; assay type: functional
# [20] = tested on: Rattus norvegicus; test: Percentage of animals tested that selected the training compound appropriate level at 0.125 umol/kg in LY-293284-trained rats; assay type: functional
# [21] = tested on: Rattus norvegicus; test: Percentage of animals tested that selected the training compound appropriate level at 0.25 umol/kg in DOI-trained rats; assay type: functional
# [22] = tested on: Rattus norvegicus; test: Percentage of animals tested that selected the training compound appropriate level at 0.25 umol/kg in LSD-trained rats; assay type: functional
# [23] = tested on: Rattus norvegicus; test: Percentage of animals tested that selected the training compound appropriate level at 0.25 umol/kg in LY-293284-trained rats; assay type: functional
# [24] = tested on: Rattus norvegicus; test: Percentage of animals tested that selected the training compound appropriate level at 0.5 umol/kg in DOI-trained rats; assay type: functional
# [25] = tested on: Rattus norvegicus; test: Percentage of animals tested that selected the training compound appropriate level at 0.5 umol/kg in LSD-trained rats; assay type: functional
# [26] = tested on: Rattus norvegicus; test: Percentage of animals tested that selected the training compound appropriate level at 1 umol/kg in LSD-trained rats; assay type: functional
# [27] = tested on: Rattus norvegicus; test: Percentage of animals tested that selected the training compound appropriate level at 1 umol/kg in LY-293284-trained rats; assay type: functional
# [28] = tested on: Rattus norvegicus; test: Percentage of animals tested that selected the training compound appropriate level at 0.5 umol/kg in LY-293284-trained rats; assay type: functional
smiles,measurement,setting,value
CCCN(CCC)C1CCc2cccc(O)c2C1 (stereo unspecified) [8-OH-DPAT],ED50,[1],0.099 µmol/kg
CCN(CC)C(=O)[C@@H]1C=C2c3cccc4[nH]cc(c34)C[C@H]2N(C)C1 [LYSERGIDE],ED50,[1],0.026 µmol/kg
COc1ccc2[nH]cc(CCN3CCCC3)c2c1F,Ki,[2],0.12 nM
same,Ki,[3],130 nM
same,Ki,[4],140 nM
same,D,[5],0%
same,D,[6],22%
same,D,[7],10%
same,D,[8],10%
same,D,[9],30%
same,D,[10],53%
same,D,[11],12.5%
same,D,[12],50%
same,D,[13],60%
same,D,[14],66.6%
same,D,[15],78%
same,D,[16],90%
same,SDL,[17],25%
same,SDL,[18],0%
same,SDL,[19],11%
same,SDL,[20],66.6%
same,SDL,[21],29%
same,SDL,[22],57%
same,SDL,[23],100%
same,SDL,[24],50%
same,SDL,[25],75%
same,SDL,[26],67%
same,SDL,[27],100%
same,SDL,[28],100%
COc1cc(CC(C)N)c(OC)cc1I (stereo unspecified),ED50,[1],0.29 µmol/kg
COc1ccc2[nH]cc(CCN(C)C)c2c1F,Ki,[2],0.23 nM
